Patent US4393052A, “Antitumor anthracycline glycosides, their preparation, intermediates therefor, and compositions and use thereof” (priority 1980, dated 1983)
In brackets after ≈: the same amount, converted by molar mass. Several values for one entry are separate records, joined by “and”; a condition that tells them apart may be missing. Equal entries are not always repeated. Where two headings read alike, the source gives them in different places.

Columns and labels:
HeLa cells = assay: Activity on HeLa cells cloning efficiency in vitro; format: cell-based; conditions: for ID50 / IC50: several values = separate experiments; for ID50: 1440 min; for activity on HeLa cells cloning efficiency in vitro (in words): compared with daunorubicin; for activity at 0.1 µg/mL: dose 100 ng/ml
Excerpt: Activity on HeLa cells cloning efficiency in vitro. Treatment

P388 ascitic leukemia = assay: Activity against P388 ascitic leukemia; format: in vivo, mice; conditions: for T/C (median survival time of treated mice/median survival time of controls) / Toxicity deaths: day 1 after tumor inoculation
Description: As regards the in vivo tests, preliminary experiments were carried out on P388 ascitic leukemia.
Activity against P388 ascitic leukemia. Treatment i.p. on day
1 after tumor inoculation.
^a Median survival time of treated mice/median survival time of […]

[1] = HeLa cloning efficiency, treatment for 24 hours
[2] = 2.9 mg/kg i.p., data of 3 experiments
[3] = Homo sapiens, HeLa, 24 h, HeLa cloning efficiency, treatment for 24 hours, read-out: ID50 (the source's name)
[4] = Homo sapiens, HeLa, 24 h, 24 hours, read-out: % of controls

| SMILES | ID50 (HeLa cells; [1]) | T/C (median survival time of treated mice/median survival time of controls) (P388 ascitic leukemia; 4.4 mg/kg i.p.) | Toxicity deaths (P388 ascitic leukemia; 4.4 mg/kg i.p.) | T/C (median survival time of treated mice/median survival time of controls) (P388 ascitic leukemia; 6.6 mg/kg i.p.) | Toxicity deaths (P388 ascitic leukemia; 6.6 mg/kg i.p.) | IC50 (HeLa cells; [3]) | activity on HeLa cells cloning efficiency in vitro (in words) (HeLa cells) | T/C (median survival time of treated mice/median survival time of controls) (P388 ascitic leukemia; 100 mg/kg i.p.) | Toxicity deaths (P388 ascitic leukemia; 100 mg/kg i.p.) | T/C (median survival time of treated mice/median survival time of controls) (P388 ascitic leukemia; 200 mg/kg i.p.) | Toxicity deaths (P388 ascitic leukemia; 200 mg/kg i.p.) | activity at 0.1 µg/mL (HeLa cells; [4]) | other results |
| --- | --- | --- | --- | --- | --- | --- | --- | --- | --- | --- | --- | --- | --- |
| COc1cccc2c1C(=O)c1c(O)c3c(c(O)c1C2=O)C[C@@](O)(C(C)=O)C[C@@H]3O[C@H]1C[C@H](N)[C@H](O)[C@H](C)O1 [Daunorubicin, reference compound] | 0.0083 µg/mL (≈ 0.0157 µM) | 170% and 168% and 185% | 1/10 and 0/6 and 0/10 | 155% and 168% and 190% | 6/10 and 5/5 and 4/10 |  |  |  |  |  |  |  | activity at 0.00625 µg/mL (HeLa cells; Homo sapiens, HeLa, 24 h, read-out: % of controls, dose 6.25 ng/ml, 24 hours, data of 3 experiments): 66%; IC50 (HeLa cells; Homo sapiens, HeLa, 24 h, read-out: ID50, HeLa cloning efficiency, treatment for 24 hours): 0.009 µg/mL (≈ 0.0171 µM); % of controls (HeLa cells; dose 3.12 ng/ml, 24 hours, data of 3 experiments): 105% and 100% and 70%; % of controls (HeLa cells; dose 6.25 ng/ml, 24 hours, data of 3 experiments): 69% and 57%; T/C (median survival time of treated mice/median survival time of controls) (P388 ascitic leukemia; [2]): 170% and 172% and 180%; Toxicity deaths (P388 ascitic leukemia; [2]): 0/10 and 0/6 |
| C=C1[C@@H](NC(=O)C(F)(F)F)C[C@H](O[C@H]2C[C@](O)(C(C)=O)Cc3c(O)c4c(c(O)c32)C(=O)c2c(OC)cccc2C4=O)O[C@H]1C [IV-A, 4'-deoxy-4'-C-methylene-N-trifluoroacetyl-daunorubicin] | 1.3 µg/mL (≈ 2.1 µM) |  |  |  |  | 1.6 µg/mL (≈ 2.58 µM) | markedly less active than daunorubicin | 110% | 0/5 | 110% | 0/5 |  | activity at 0.8 µg/mL (HeLa cells; Homo sapiens, HeLa, 24 h, dose 800 ng/ml, 24 hours, read-out: % of controls): 115%; activity at 3.2 µg/mL (HeLa cells; Homo sapiens, HeLa, 24 h, dose 3200 ng/ml, 24 hours, read-out: % of controls): 7%; % of controls (HeLa cells; dose 800 ng/ml, 24 hours): 116%; T/C (median survival time of treated mice/median survival time of controls) (P388 ascitic leukemia; 400 mg/kg i.p.): 130%; Toxicity deaths (P388 ascitic leukemia; 400 mg/kg i.p.): 0/3 |
| COc1cccc2c1C(=O)c1c(O)c3c(c(O)c1C2=O)CC(O)(C(C)=O)CC3OC1CC(N)C(C)C(C)O1 (stereo not drawn) [V-B, 4'-deoxy-4'-epi-C-methyl-daunorubicin] |  | 130% | 0/10 | 140% | 0/10 | 0.0077 µg/mL (≈ 0.0147 µM) | maintained a high cytotoxic activity |  |  |  |  | 0% | activity at 0.0062 µg/mL (HeLa cells; Homo sapiens, HeLa, 24 h, dose 6.2 ng/ml, 24 hours, read-out: % of controls): 54%; activity at 0.025 µg/mL (HeLa cells; Homo sapiens, HeLa, 24 h, dose 25 ng/ml, 24 hours, read-out: % of controls): 4%; T/C (median survival time of treated mice/median survival time of controls) (P388 ascitic leukemia; 10.0 mg/kg i.p.): 140%; Toxicity deaths (P388 ascitic leukemia; 10.0 mg/kg i.p.): 0/9 |
| COc1cccc2c1C(=O)c1c(O)c3c(c(O)c1C2=O)C[C@@](O)(C(C)=O)C[C@@H]3O[C@H]1C[C@H](N)[C@@](O)(CN)[C@H](C)O1 [V-C, 4'-C-aminomethyl-daunorubicin] |  |  |  |  |  | 1 µg/mL (≈ 1.8 µM) | markedly less active than daunorubicin | 172% | 0/5 | 204% | 0/4 | 143% | activity at 0.4 µg/mL (HeLa cells; Homo sapiens, HeLa, 24 h, dose 400 ng/ml, 24 hours, read-out: % of controls): 141%; activity at 1.6 µg/mL (HeLa cells; Homo sapiens, HeLa, 24 h, dose 1600 ng/ml, 24 hours, read-out: % of controls): 3.8%; T/C (median survival time of treated mice/median survival time of controls) (P388 ascitic leukemia; 50 mg/kg i.p.): 181%; Toxicity deaths (P388 ascitic leukemia; 50 mg/kg i.p.): 0/6; antitumor activity compared with daunorubicin (in words) (P388 ascitic leukemia; at a dose of 200 mg/kg): more active than daunorubicin |
